Assay results taken from patent US20260224716A1, “PTH ANALOGS FOR THE TREATMENT OF HYPOPARATHYROIDISM” (priority 2020, published 2026).

Assays:
PTHR1 = target: T1, PTHR1 (Homo sapiens, UniProt Q03431); assay: cAMP Hunter Teriparatide Bioassay (CHO-K1 PTHR1 cells); assay type: cell-based
T1 construct: host or cells: CHO-K1
T1 sequence (Q03431 27-593): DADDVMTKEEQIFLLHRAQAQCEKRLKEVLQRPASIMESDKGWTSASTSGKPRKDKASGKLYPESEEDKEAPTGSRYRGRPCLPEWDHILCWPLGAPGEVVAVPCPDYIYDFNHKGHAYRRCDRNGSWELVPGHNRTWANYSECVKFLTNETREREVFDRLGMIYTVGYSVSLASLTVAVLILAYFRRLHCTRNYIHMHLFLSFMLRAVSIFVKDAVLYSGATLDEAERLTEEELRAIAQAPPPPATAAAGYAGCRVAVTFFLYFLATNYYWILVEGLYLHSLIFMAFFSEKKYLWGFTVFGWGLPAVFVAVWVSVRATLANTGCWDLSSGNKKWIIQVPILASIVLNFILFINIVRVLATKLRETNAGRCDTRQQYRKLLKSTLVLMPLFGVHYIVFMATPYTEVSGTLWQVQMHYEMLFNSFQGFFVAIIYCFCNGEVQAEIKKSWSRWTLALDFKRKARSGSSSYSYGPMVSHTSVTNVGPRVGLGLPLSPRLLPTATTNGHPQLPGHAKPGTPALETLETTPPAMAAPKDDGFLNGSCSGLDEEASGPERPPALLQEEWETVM
Procedure: The assessment of the bioactivity of a prodrug relative to its drug form was conducted in a proprietary commercial assay as contracted with Eurofins-Discover Rx Corporation win a cAMP Hunter® Teriparatide Bioassay (95-0118Y2). An 11-point dose curve in agonist mode was conducted for each individual peptide or incubation condition. Every sample was run at each dose in triplicate.
An 11-point dose curve in agonist mode was conducted for each individual peptide or incubation condition. Every sample was run at each dose in triplicate.
An 11-point dose curve in agonist mode was conducted for each individual peptide at each concentration. Every sample was run at each dose in triplicate.

serum calcium [1] = assay: Serum calcium in parathyroidectomized rats, four daily doses (Example 15); assay type: in vivo, Sprague-Dawley rats; conditions: for starting serum calcium concentration: before first dose
From the text: Rats were randomly distributed among 5 groups and injected subcutaneously for four consecutive days with either vehicle (sterile 0.9% NaCl solution; n=6), or SEQ ID NO; 87 (10, 25, 40 nmol/kg; n=8). Two separate vehicle treated groups of rats were studied. The first represented control rats surgically managed like the remaining rats, but their parathyroid gland was not removed (sham control). The second vehicle control group represented rats that were surgically managed in the same manner as the SEQ ID NO: 87 treated rats. Following surgery and one week prior to testing all the rats were placed on a defined diet at a specific calcium concentration.
A 96-well plate spectrophotometer (SpectraMax M5, Molecular Devices) was employed for detection. […] Absorbance (Ab) was measured at 650 nm wavelength. Manufacturer provided linearity up to 15 mg/dL. The serum calcium was measured immediately prior to injection (time 0 hour), followed by 24, 48, 72, and 96 hours.

serum calcium [2] = assay: Serum calcium in rats, repeat daily dosing 28 days (Example 14); assay type: in vivo, Sprague-Dawley rats
Procedure: Changes in body weight and food intake were also measured.
Body weight and food intake were measured on Day 0 (immediately prior to peptide administration), 1, 3, 7, 10, 14, 17, 21, 24, 28, 31, and 35. Serum Ca was measured at the start of the experiment and on Days 7, 14, 21, 28, 29, 30, 31, 32 and 34. Blood samples were collected via tail laceration for determination of total Ca in serum using commercially available colorimetric assays.

[3] = Cleavage half-life / conversion of PTH prodrugs in PBS pH 7.4, 37° C. by LC-MS; assay type: physicochemical; conditions: for Percentage of prodrug: prodrug in PBS, LC-MS peak areas
Summary of the method: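 Prodrugs incubated in PBS pH 7.4 at 37 °C, aliquots sampled over time for LC-MS (10–80% acetonitrile/0.1% TFA gradient). Prodrug and drug quantified by relative peak areas; dissociation rate constant from log prodrug concentration versus time.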

[4] = Pharmacokinetics of SEQ ID 87 in monkeys, single subcutaneous dose (Example 17); assay type: in vivo, cynomolgus monkeys; conditions: FIGS. 26A, 26B
Procedure: A total of three monkeys were used at each test dose. The monkeys ranged in age from 2-4 years old at beginning of the study and having a weight of at least 2.5 kg. The dose volume was 0.3 mL/kg. Individual dose volumes were calculated based on the animals' most recently recorded body weight.
Animals were not fasted prior to collection. Blood was be collected via the femoral vein (or another appropriate site). Blood samples were maintained at 5±3° C. (wet ice or equivalent) and centrifuged at 5±3° C. within 1 hour of the collection of each blood sample. The resultant plasma was transferred to a tube and then stored under conditions set to maintain −75±15° C. until analysis.
Pharmacokinetic mean concentration-time data was analyzed using non-compartmental methods (Phoenix® WinNonlin® Version 7.0 or higher) based on the route of administration. The following parameters were calculated whenever possible and as data allows: Cmax, Tmax, and AUC. Descriptive statistics were generated using Phoenix WinNonlin.

[5] = Plasma drug levels in rats, repeat daily dosing 7 days, LCMS (Example 13); assay type: in vivo, Sprague-Dawley rats
Procedure: (§1) Female Sprague-Dawley rats were single or double-housed and randomly assigned to four groups (n=5-6 per group) as described in Table 20, and then weighed.
(§2) After the treatment ceased, the animals were monitored on days 9 and 11 (washout period).
(§3) Body weight and food intake were measured on days 0, 1, 3, 5 and 7. Ca was measured on days 0, 1, 2, 3, 4, 7, 9 and 11. Pi was determined on the same samples, except for days 9 and 11.

serum calcium [6] = assay: Serum calcium in rats, repeat daily dosing 7 days (Example 13); assay type: in vivo, Sprague-Dawley rats; conditions: daily SC 7 days; SEQ ID NO: 77 20 nmol/kg, SEQ ID NO: 87 20 or 40 nmol/kg; returned to initial values after washout
Procedure: as §1, §2, §3

serum calcium [7] = assay: Serum calcium in rats after single subcutaneous dose (Example 10); assay type: in vivo, Sprague-Dawley rats; conditions: 30 or 60 nmol/kg SC single dose; increase within the physiological range
Procedure: A 96-well plate spectrophotometer (SpectraMax M5, Molecular Devices) was employed for detection. Serum Ca and Pi were measured on days 0, 1, 2, 4, 5 and 7. Absorbance (Ab) was measured at 650 nm for Ca and 340 nm for Pi. Manufacturer linearity is provided up to 15 mg/dl for Ca and 10 mg/dl for Pi.

[8] = Pharmacokinetics in rats after single subcutaneous dose, LCMS (Example 10); conditions: rats
From the text: Female Sprague-Dawley rats were randomly distributed among four groups with five or six rats per group. […] Dose volume was based on body weight and recorded prior to dosing.

With `CC[C@H](C)[C@H](NC(=O)[C@H](CCC(=O)O)NC(=O)[C@H](CO)NC(=O)[C@@H](NC(=O)[C@H](CO)NC(=O)CN(C)C(=O)[C@H](N)CCCCNC(=O)CC[C@H](NC(=O)COCCOCCNC(=O)COCCOCCNC(=O)CC[C@H](NC(=O)CCCCCCCCCCCCCCCCC(=O)O)C(=O)O)C(=O)O)C(C)C)C(=O)N[C@@H](CCC(N)=O)C(=O)N[C@@H](CC(C)C)C(=O)N[C@@H](CCSC)C(=O)N[C@@H](Cc1c[nH]cn1)C(=O)N[C@@H](CC(N)=O)C(=O)N[C@@H](CC(C)C)C(=O)NCC(=O)N[C@@H](CCCCN)C(=O)N[C@@H](Cc1c[nH]cn1)C(=O)N[C@@H](CC(C)C)C(=O)N[C@@H](CC(N)=O)C(=O)N[C@@H](CO)C(=O)N[C@@H](CCSC)C(=O)N[C@@H](CCC(=O)O)C(=O)N[C@@H](CCCNC(=N)N)C(=O)N[C@H](C(=O)N[C@@H](CCC(=O)O)C(=O)N[C@@H](Cc1c[nH]c2ccccc12)C(=O)N[C@@H](CC(C)C)C(=O)N[C@@H](CCCNC(=N)N)C(=O)N[C@@H](CCCCN)C(=O)N[C@@H](CCCCN)C(=O)N[C@@H](CC(C)C)C(=O)N[C@@H](CCC(N)=O)C(=O)N[C@@H](CC(=O)O)C(=O)N[C@H](C(=O)N[C@@H](Cc1c[nH]cn1)C(=O)N[C@@H](CCCCNC(=O)CC[C@H](NC(=O)COCCOCCNC(=O)COCCOCCNC(=O)CC[C@H](NC(=O)CCCCCCCCCCCCCCCCC(=O)O)C(=O)O)C(=O)O)C(=O)O)C(C)C)C(C)C` [SEQ ID NO: 87] the Hillslope (PTHR1; FIG. 11, prodrug incubated in PBS 1 day) was 1.421, the Hillslope (PTHR1; FIG. 11, prodrug incubated in PBS 2 day) was 2.102 and the Hillslope (PTHR1; FIG. 11, prodrug incubated in PBS 3 day) was 1.825. For the same compound, the Hillslope (PTHR1; FIG. 11, prodrug incubated in PBS 5 day) was 2.102, the Hillslope (PTHR1; FIG. 11, prodrug incubated in PBS 8 day) was 2.172 and the “PTH agonism” value (PTHR1; conclusions from Table 14, FIGS. 8A-8C) was “full PTH agonist of high nM potency”. The “serum calcium versus sham control” value (serum calcium [1]; PTx rats, 25 nmol/kg daily SC, 72 hours) was “insignificantly different from the sham control rats”, the “serum calcium versus sham control” value (serum calcium [1]; PTx rats, 40 nmol/kg daily SC, after 48 hours) was “slightly exceeding that of the sham control rats” and the “serum calcium excess over the sham control” value (serum calcium [1]; PTx rats, 40 nmol/kg, […] (72 hours after last dose)) was “more than 0.2 nmol/ml”. For the same compound, the “starting serum calcium concentration” value (serum calcium [1]; PTx rats, treatment group 10 nmol/kg) was 1.185 nmol/µL, the “starting serum calcium concentration” value (serum calcium [1]; PTx rats, treatment group 25 nmol/kg) was 1.354 nmol/µL and the “starting serum calcium concentration” value (serum calcium [1]; PTx rats, treatment group 40 nmol/kg) was 1.251 nmol/µL. The “starting serum calcium, higher level than vehicle treated PTx-rats” value (serum calcium [1]; treatment group 10 nmol/kg) was 9.2%, the “starting serum calcium, higher level than vehicle treated PTx-rats” value (serum calcium [1]; treatment group 25 nmol/kg) was 24.8% and the “starting serum calcium, higher level than vehicle treated PTx-rats” value (serum calcium [1]; treatment group 40 nmol/kg) was 15.3%. The “absolute increase in serum Ca over the course of the study” value (“absolute increase in serum Ca” below) (serum calcium [2]; 4 nmol/kg daily SC) was 1.356 mg/dL, the “percentage increase in serum Ca” value (serum calcium [2]; 4 nmol/kg daily SC) was 14.7% and the “absolute increase in serum Ca” value (serum calcium [2]; 8 nmol/kg daily SC) was 1.452 mg/dL. The “percentage increase in serum Ca” value (serum calcium [2]; 8 nmol/kg daily SC) was 16.7%, the “absolute increase in serum Ca” value (serum calcium [2]; 12 nmol/kg daily SC) was 2.072 mg/dL and the “percentage increase in serum Ca” value (serum calcium [2]; 12 nmol/kg daily SC) was 23%. The “general health” value (serum calcium [2]; 4, 8, 12 nmol/kg daily SC) was “All animals appeared healthy”, the half-life ([3]; PBS buffer, pH 7.4, PBS, LCMS over 192 hours, FIG. 10) was 112 h and the Percentage of prodrug ([3]; 0 h) was 100%. For the same compound, the Percentage of prodrug ([3]; 48 h) was 74%, the Percentage of prodrug ([3]; 72 h) was 62% and the Percentage of prodrug ([3]; 120 h) was 46%. For the same compound, the Percentage of prodrug ([3]; 192 h) was 31%, the “difference of prodrug to drug serum concentration” value [4] was about 4 fold and the “daily administrations to reach steady state plasma levels” value ([5]; daily SC dosing) was “four”. The “difference in total concentration of prodrug to drug” value ([5]; seven daily SC injections, FIGS. 19A, 19B) was 4 fold, the “Serum Ca levels during the treatment period” value (serum calcium [6]) was “gradually increased” and the “time of peak of serum calcium increase” value (serum calcium [7]) was 3 days. The “time of return to baseline value, prodrug” value ([8]; SEQ ID NO: 87 30 nmol/kg SC) was “one week” and the “tolerability” value ([8]; doses where prodrug and drug could be measured by LCMS) was “did not adversely affect the rats”.
